Assay [1] concerns the target CREBBP bromodomain (His-CREBBP(1081-1197)) (Homo sapiens (Human), UniProt Q92793). Description: AlphaScreen in-vitro binding assay for CREBBP. The settings on record: AlphaScreen, acetyl-histone H4 peptide; read-out: CREBBP IC50. Background: In Alpha technology, singlet oxygen from a donor bead excites a nearby acceptor bead.
Another assay concerns the target BRD4 (His-Brd4(44-477)) (Homo sapiens (Human), UniProt O60885). The assay can be described thus: TR-FRET in-vitro binding assay for BRD4. The settings on record: acetyl-histone H4 peptide.
Assay [2] has as its target nuclear BRD4-NUT foci in HCC2494 NUT midline carcinoma cells (Homo sapiens (Human), UniProt O60885+Q86Y26). The assay can be described thus: Nut-foci formation assay (HCS). In kind it is cell-based. To be noted: 24 hours, NUT-foci immunofluorescence. How it is done:
HCC2494 NUT midline carcinoma cells (expressing BRD4-NUT-fusion) were obtained from the University of Texas Southwestern and cultured in RPMI-1640 medium containing 10% Foetal Calf Serum at 37° C. in a humidified 5% CO2 incubator.
Compound-mediated inhibition of BRD4 activity was monitored by quantification of the number and intensity of nuclear BRD4-NUT foci using automated immunofluorescence microscopy. Briefly, 5000 cells in 20 μl fresh medium were seeded into Poly-D-Lysine-precoated 384-well plates and incubated overnight at 37° C. and 5% CO2, followed by addition of 5 μl medium containing compound dilutions at 5-fold their final intended concentration. Dose-response effects were assessed by 3-fold serial dilutions of the test compound, starting at 10 μM. Following incubation of the cells for 24 hours at 37° C. and 5% CO2, the cells were fixed by incubation with 3.7% formaldehyde for 10 min, followed by immunofluorescence staining using rabbit anti-NUT (Cell Signaling Technologies, Cat#3625) as primary, and AlexaFluor488-labeled goat anti-rabbit (Invitrogen, Cat#A11008) as secondary antibody (latter complemented with 1 μg/mL Hoechst33342 as DNA dye). Assay plates were imaged using the appropriate filter sets on the Cellomics VTi automated fluorescence microscopy platform (ThermoFisher Scientific) and the population average of the number of NUT-foci per nucleus is quantified using the Cellomics Spot Detection BioApplication image analysis algorithm (ThermoFisher Scientific). The effect of a particular test compound concentration on NUT-foci number and intensity is expressed as percentage of the value obtained for cells treated with vehicle only (DMSO, 0.1% final concentration), which was set as 100. Compound concentrations leading to half-maximal (IC50) inhibition of the aforementioned readout parameters were determined using standard four parameter curve fitting.

Chain of CREBBP bromodomain (His-CREBBP(1081-1197)) (Q92793 1081-1197): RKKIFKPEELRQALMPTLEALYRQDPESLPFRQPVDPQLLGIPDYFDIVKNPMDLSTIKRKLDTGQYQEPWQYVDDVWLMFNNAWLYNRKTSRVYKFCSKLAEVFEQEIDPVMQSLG

In general, IC50 refers to the concentration at which inhibition is half-maximal. `Cc1cc(N2C(=O)c3c(C4CC4)nn(C)c3C2c2ccc(Cl)cc2)cn2c(C(F)F)nnc12` (racemic) [Example 3, 6-(4-chlorophenyl)-3-cyclopropyl-5-(3-(difluoromethyl)-8-methyl-[1,2,4]triazolo[4,3-a]pyridin-6-yl)-1-methyl-5,6-dihydropyrrolo[3,4-c]pyrazol-4(1H)-one]: the IC50 in assay [1] was > 37 µM; on BRD4 (His-Brd4(44-477)), < 11 nM; in assay [2], 8.27 nM.
The matching figures for `COCCn1nc(C2CC2)c2c1C(c1ccc(Cl)cc1)N(c1cc(C)c3nnc(C)n3c1)C2=O` (racemic) [Example 4, 6-(4-chlorophenyl)-3-cyclopropyl-5-(3,8-dimethyl-[1,2,4]triazolo[4,3-a]pyridin-6-yl)-1-(2-methoxyethyl)-5,6-dihydropyrrolo[3,4-c]pyrazol-4(1H)-one]: 7.3 µM, < 11 nM and 9.04 nM.
Taken in the same sequence, the figures for `COc1cc(N2C(=O)c3c(C4CC4)nn(C)c3C2c2ccc(Cl)cc2)cn2c(C)nnc12` (racemic) [Example 5, 6-(4-chlorophenyl)-3-cyclopropyl-5-(8-methoxy-3-methyl-[1,2,4]triazolo[4,3-a]pyridin-6-yl)-1-methyl-5,6-dihydropyrrolo[3,4-c]pyrazol-4(1H)-one] were > 37 µM, 28 nM and 36 nM.
On to `Cc1cc(N2C(=O)c3c(C4CC4)nn(C)c3C2c2ccc(Cl)cc2)cn2c(CF)nnc12` (racemic) [Example 16, 6-(4-chlorophenyl)-3-cyclopropyl-5-(3-(fluoromethyl)-8-methyl-[1,2,4]triazolo[4,3-a]-pyridin-6-yl)-1-methyl-5,6-dihydropyrrolo[3,4-c]pyrazol-4(1H)-one], for which the IC50 in assay [1] was > 37 µM; at BRD4 (His-Brd4(44-477)), 15 nM; in assay [2] it was 12.1 nM.
The matching figures for `Cc1cc(N2C(=O)c3c(C4CC4)nn(C)c3C2c2ccc(Cl)cc2)cn2c(C)nnc12` (centres unmarked) [Example 1, 6-(4-chlorophenyl)-3-cyclopropyl-5-(3,8-dimethyl-[1,2,4]triazolo[4,3-a]pyridin-6-yl)-1-methyl-5,6-dihydropyrrolo[3,4-c]pyrazol-4(1H)-one]: 11.4 µM, 24 nM and 16.2 nM.
Taken in the same sequence, the figures for `Cc1cc(N2C(=O)c3c(C4CC4)nn(C)c3[C@H]2c2ccc(Cl)cc2)cn2c(C)nnc12` [Example 2, (R)-6-(4-chlorophenyl)-3-cyclopropyl-5-(3,8-dimethyl-[1,2,4]triazolo[4,3-a]pyridin-6-yl)-1-methyl-5,6-dihydropyrrolo[3,4-c]pyrazol-4(1H)-one] were 6 µM, < 11 nM and 4.71 nM.
On to `COc1cc(N2C(=O)c3c(C4CC4)nn(C)c3C2c2ccc(Cl)cc2)cc2c1nnn2C` (centres unmarked) [Example 6], for which the half-inhibitory concentration (IC50) in assay [1] is 21.6 µM; at BRD4 (His-Brd4(44-477)), 22 nM; in assay [2], 54.8 nM.
`Cc1cc(N2C(=O)c3c(C4CC4)nn(C)c3[C@H]2c2ccc(Cl)cc2)cn2c(C(F)F)nnc12` [Example 7, (R)-6-(4-chlorophenyl)-3-cyclopropyl-5-(3-(difluoromethyl)-8-methyl-[1,2,4]triazolo-[4,3-a]pyridin-6-yl)-1-methyl-5,6-dihydropyrrolo[3,4-c]pyrazol-4(1H)-one]: the IC50 was > 37 µM in assay [1], < 11 nM on BRD4 (His-Brd4(44-477)) and 2.14 nM in assay [2].
The matching figures for `COCCn1nc(C2CC2)c2c1C(c1ccc(Cl)cc1)N(c1cc(C)c3nnc(CF)n3c1)C2=O` (centres unmarked) [Example 18, 6-(4-chlorophenyl)-3-cyclopropyl-5-(3-(fluoromethyl)-8-methyl-[1,2,4]triazolo[4,3-a]-pyridin-6-yl)-1-(2-methoxyethyl)-5,6-dihydropyrrolo[3,4-c]pyrazol-4(1H)-one]: > 37 µM, 25 nM and 3.65 nM.
On to `Cc1nnc2c(NC(=O)OC(C)(C)C)cc(N3C(=O)c4c(C5CC5)nn(C)c4C3c3ccc(Cl)cc3)cn12` (centres unmarked) [Example 27, tert-butyl (6-(6-(4-chlorophenyl)-3-cyclopropyl-1-methyl-4-oxopyrrolo[3,4-c]pyrazol-5(1H,4H,6H)-yl)-3-methyl-[1,2,4]triazolo[4,3-a]pyridin-8-yl)carbamate], for which the 50% inhibitory concentration (IC50) came to 8.1 µM in assay [1], 36 nM on BRD4 (His-Brd4(44-477)) and 22.4 nM in assay [2].
`CCOC(=O)Nc1cc(N2C(=O)c3c(C4CC4)nn(C)c3C2c2ccc(Cl)cc2)cn2c(C)nnc12` (centres unmarked) [Example 29, ethyl (6-(6-(4-chlorophenyl)-3-cyclopropyl-1-methyl-4-oxopyrrolo[3,4-c]pyrazol-5-(1H,4H,6H)-yl)-3-methyl-[1,2,4]triazolo[4,3-a]pyridin-8-yl)carbamate]: the values for the half-maximal inhibitory concentration (IC50) (at BRD4 (His-Brd4(44-477)); in assay [2]) were 23 nM and 2.2 nM, respectively.

The values are drawn from patent publication US9624247B2, “Pyrazolo-pyrrolidin-4-one derivatives as bet inhibitors and their use in the treatment of disease” (NOVARTIS AG, priority 2013, dated 2017).
